Results: US10292992B2, “Selective high-affinity polydentate ligands and methods of making such” (LAWRENCE LIVERMORE NATIONAL SECURITY, LLC, priority 2008, dated 2019)
Entries after “also recorded” stand apart in the source; their conditions may differ.

Key:
HLA-DR10 = assay: NMR screening of ligands for binding to HLA-DR10; set-up: species or system human
From the text: Determination of ligand binding and orientation can also be determined using a number of different methods. These include, but are not limited to Saturation Transfer Difference nuclear magnetic resonance (Mayer and Meyer (1999) Angew Chem Int Edit, 38:1784-1788) and Transfer NOE (trNOE) nuclear magnetic resonance (NMR) spectroscopy (Henrichsen et al. (1999) Angew Chem Int Edit., 38:98-102; Cosman et al. (2002) Chem Res Toxicol 15: 1218-1228). These methods can be used to screen the ligands in mixtures of several to several hundred per experiment to determine which ligands bind to the target molecule(s) e.g., under biologically relevant conditions and to determine which ligands bind to the same (or different) sites. Diffusion experiments (Lin et al. (1997) J. Organic Chem., 62: 8930-8931) can also be performed with those ligands that have been determined to bind in order to assess the relative binding affinity of each compound.
As a result of the computational docking, 30 compounds from both the Site 1 and Site 2 lists were experimentally screened by NMR.
A number of cell surface protein receptors have been identified that distinguish malignant cancer cells from their normal counterparts. […] This has led to the development of a variety of antibody-based, receptor-specific reagents conjugated to radioisotopes for use in radio-immunotherapy. […]

HLA-DR10 protein = assay: Surface plasmon resonance binding of SHALs to isolated HLA-DR10 protein; set-up: species or system human; details: biotinylated versions of the SHALs immobilized on streptavidin chip; HLA-DR10 isolated from Raji cells
From the text: In certain embodiments, the binding affinities of the best SHALs can be estimated by mass spectrometry of the SHAL-target complexes, followed by a more accurate surface plasmon resonance (SPR) spectroscopy (Shuck (1997) Annu Rev Biophys Biomol Struct., 26: 541-566; Van Regenmortal (2001) Cell Mol Life Sci., 58: 794-800) measurement of the SHAL-target binding affinity using for example, the IASYS Plus or BiaCore instruments. In order to perform the SPR measurement, biotin can be added to the linker through a third functional group (as described above) and the SHAL can be bound to commercially available streptavidin coated chips. […] Experiments can be performed to test the selectivity of SHAL binding to targets in the presence of molecules related to the targets. Thus, for example, where the SHAL is directed to HLA-DR10, the SHAL can be evaluated for its ability to bind target molecules in the presence of Raji cell surface proteins extracted and separated by affinity chromatography. After treating the gel with the biotinylated SHAL and rinsing out excess unbound SHAL, the location of the bound SHAL can be detected by staining with Rhodamine tagged streptavidin.
Protein binding experiments were conducted using surface plasma resonance on a Biacore 3000 (Biacore, Piscataway, N.J.) at 25° C. A research grade streptavidin immobilized chip (SA chip, Biacore) was preconditioned and normalized according to the manufacturers instructions. Biotin labeled SHALs were dissolved in DMSO and diluted in 1.05×PBS (Biacore) to a final concentration of 1×PBS pH 7.4, 5% DMSO, to match the running buffer. These SHALs were injected over the flow cell to yield a surface density of 500-1000RU (response units). Biotin (50 μM E-Z Link Amine-PEO2-Biotin, Pierce) was injected over all cells for 1 minute at 20 μl/min as a block to reduce non-specific binding. One flow cell was used as a reference cell and a different SHAL was immobilized on each of the three other cells.
Experiments measuring the binding of HLA-DR10 to the SHALs were carried out at a flow rate of 30 μl/minute in PBS pH7.4 running buffer using all 4 flow cells. HLA-DR10 isolated from Raji cells (Rose et al. (1996) Cancer Immunol Immunother 43:26-30) was diluted in running buffer to a final concentration ranging from […] and a series of concentrations were run randomly in triplicate. Protein was injected for 3 minutes, allowed to dissociate for 5 minutes followed by regeneration of the surface using a 1 minute injection of 0.1% sodium dodecylsulfate (SDS) followed by a washing step with a 2 minute injection of running buffer. The data, which were double referenced by subtracting the blank reference surface and an average of 5 blank injections, were processed using the program SCRUBBER (University of Utah).
Using homology modeling, HLA-DR amino acid residues critical for Lym-1 binding were mapped on a 3-D model of the HLA-DR10ß subunit (Balhorn et al, (2007) Clin. Cancer Res., 13(Suppl. 18): S5621-S5628). Cavities within the Lym-1 epitopic surface of the protein were identified using SPHGEN (Kuntz et al. (1982) J. Mol Biol. 161: 269-288; Desjarlais et al. (1988) J. Med. Chem., 31: 722-729). After computational ligand docking for each of the cavities, a combination of NMR spectroscopy, surface plasmon resonance (BIAcore 3000; Biacore, Piscataway, N.J.) and competitive binding experiments were used to confirm ligand binding to HLA-DR10 protein. […]

[1] = test system: Raji cells expressing HLA-DR10; assay: Whole cell binding assay with 111In-labeled SHAL; assay type: cell-based, human
Experimental: Raji human Burkitt's lymphoma B-cells (American Type Culture Collection, Manassas, Va.) were maintained in RPMI-1640 media supplemented with 10% fetal bovine serum, 2mM L-glutamine, 1 mM sodium pyruvate, 1% of a solution of nonessential amino acids (GIBCO #11140-050), and 100 units/ml of Penicillin G, 100 μg/ml Streptomycin, and 0.25 μg/ml of Amphotericin B at 37° C. in a humidified 5% CO2 atmosphere. Jurkat's cells (American Type Culture Collection, Manassas, Va.), an acute leukemia T-cell line, were maintained in the same medium with the addition of 10 mM 4-(2-hydroxyethyl)-1-piperazineethanesulfonic acid (HEPES).
A series of experiments were conducted to quantify the uptake of the ^111In-labeled parent SHAL (DvLPBaPPP)2LLDo and its hexa-arginine analog (DvLPBaPPP)2LArg6AcLLDo by Raji cells, a cell line that has been previously shown to express the HLA-DR10 variant. The assays were conducted using aliquots containing 10^6 cells suspended in 150 μl of PBS with 5% bovine serum albumin (BSA). Aliquots of cells were treated with 0.1, 1, 5, 10 or 25 ng of ^111In-labeled (DvLPBaPPP)2LLDo or (DvLPBaPPP)2LArg6AcLLDo for one hour at both 4° C. and 22° C. The tubes containing the treated cells were centrifuged to separate the cell pellet from the supernatant and the two fractions were counted in a calibrated gamma well counter to determine the amount of bound and free SHAL. Half of the cell pellets were washed twice with PBS and incubated at 22° C. for 15 min before centrifuging them again. The pooled washes and washed cell pellets were subsequently counted in the gamma well counter to assess how much of the bound SHAL could be removed by washing.
In vitro cell binding experiments were conducted using ^111In-labeled parent SHAL and the hexa-arginine SHAL analog to quantify SHAL uptake and to evaluate the effect of adding the hexa-arginine tag. Uptake was assessed using Raji cells, a lymphoma cell line expressing HLA-DR10. Aliquots containing 10^6 cells were incubated with increasing amounts of SHAL containing ^111In labeled SHAL as a tracer, and cell-associated ^111In was measured before and after washing the cell pellets.

Raji cells = assay: 3-D confocal microscopy, Raji cells; assay type: cell-based, human; details: biotinylated reagent, 1 hr; 10 μM SHAL or 10 nM chLym-1; listed as parent SHAL
Experimental: SHAL binding and internalization by Raji and Jurkat's cells was assessed using the method described previously by O'Donnell et al. (O'Donnell et al. (1998) Prostate 37:91-97). Experiments were conducted comparing the binding of (DvLPBaPPP)2LLDo (the parent SHAL), its hexa-arginine analog (DvLPBaPPP)2LArg6AcLLDo, and chimeric Lym-1 (chLym-1) to Raji cells. All steps were performed at 20° C., unless indicated.
Four million Raji cells (>92% viability) in log phase growth were pelleted at 300×g, washed, and blocked for 30 min in 1 ml of 1% fraction V BSA in PBS, with constant rotation. Cells were then incubated 1 hr, at 1 million per 250 μl, with either 1% BSA in PBS or a biotinylated primary reagent: 10 nM chLym-1, 10 μM parent SHAL, or 10 μM hexa-arginine SHAL. After four washes (two in 1% BSA in PBS, two in PBS), 50 μl of the cell suspensions was applied to freshly poly-L-Lysine coated slides, and cells were allowed to adhere for 10 min in a humid chamber. Fixation and permeabilization were performed at −20° C. by using a 4 min exposure to methanol. Jurkat's cells were treated in the same manner as a control.
Slides were then washed twice in PBS and blocked in 10% fetaplex serum (Gemini Bioproducts, West Sacramento, Calif.) in PBS for 15 min and washed once in PBS. The detection reagent, Streptavidin AlexaFluor 610 (Invitrogen, Carlsbad, Calif.) was diluted 1/500 in diluent, 100 μl was applied; a parafilm cover slip was layered over the solution to prevent evaporation. The slides were incubated in a humid chamber for 30 min., washed 5 times for 5 min each in PBS, and rinsed briefly in double distilled H2O. After the slides dried, cover slips were mounted with ProlongGold with 4′,6-diamidino-2-phenylindole (DAPI, Invitrogen, Carlsbad, Calif.). The slides were viewed with an Olympus FV1000 laser scanning confocal microscope and data were collected as Z-scans at 160×, with focal sections being taken 1 μm apart through the cell.

[2] = test system: cultured cell lines containing HLA-DR10; details: shown previously (Balhorn et al. 2007); cited from earlier work

Row | Compound | binding to HLA-DR10 in subsequent screenings (HLA-DR10) | Kd (HLA-DR10 protein) [nM] | pmoles SHAL Bound/10^6 cells unwashed ([1]; 5.3 pmoles of 111In-labeled SHAL, unwashed cell pellets) | pmoles SHAL Bound/10^6 cells Washed ([1]; 5.3 pmoles of 111In-labeled SHAL, washed two times with BSA/buffer) | proportion of SHAL retained by the cells after washing ([1]; Raji cells, after washing) [%] | Percent SHAL Retained ([1]; after washing two times) [%] | SHAL binding, uptake and localization in Raji cells (Raji cells) | selective binding to HLA-DR10 expressing cell lines [2]
1 | Nc1ccc(Oc2ccc(C(=O)c3ccc(C(=O)c4ccc(Oc5ccc(N)cc5)cc4)cc3)cc2)cc1 [1,4-phenylenebis[[4-(4-aminophenoxy)phenyl]methanone]] | precipitated onto the target protein |  |  |  |  |  |  | 
2 | CC(C)C(NS(=O)(=O)c1ccc(N=Nc2ccc(N(C)C)cc2)cc1)C(=O)NC(CCCCNC(=O)COCCOCCNC(=O)c1ccc(NC(=O)C(CCCNC(=N)N)NC(=O)c2ccccc2)cc1)C(=O)NCCOCCOCC(=O)NCCOCCOCC(=O)NCCOCCOCC(=O)NCCCCC(NC(=O)COCCOCCNC(=O)COCCOCCNC(=O)COCCOCCNC(=O)C(CCCCNC(=O)COCCOCCNC(=O)c1ccc(NC(=O)C(CCCNC(=N)N)NC(=O)c2ccccc2)cc1)NC(=O)C(NS(=O)(=O)c1ccc(N=Nc2ccc(N(C)C)cc2)cc1)C(C)C)C(=O)NC(CCCCNC(=O)CN1CCN(CC(=O)O)CCN(CC(=O)O)CCN(CC(=O)O)CC1)C(=O)O (centres unmarked) [(DvLPBaPPP)2LLDo] |  | ~21 | 0.568 ± 0.091 pmoles SHAL Bound/10^6 cells | 0.263 ± 0.000 pmoles SHAL Bound/10^6 cells | ~46 | 46 | intracellular binding; also recorded: Nuclear staining was not observed; also recorded: taken up and internalized | bind selectively to HLA-DR10 expressing cell lines
